Where two headings read alike, the source gives them in different places.
Columns and labels:
FADD−/− Jurkat = experiment: Cell viability assay, protection from necroptosis in FADD−/− Jurkat cells; type: cell-based; conditions: Homo sapiens, 16 h
L929 = experiment: Cell viability assay, protection from necroptosis in L929 cells; type: cell-based, mouse; conditions: Mus musculus, L929, 16 h
hRIPK1 = biological target: T1, hRIPK1 (Homo sapiens, UniProt Q13546); experiment: In vitro RIPK1 kinase activity assay; type: biochemical; conditions: Enzymatic IC50s RIPK1, hRIPK1 enzymatic assay
T1 sequence (Q13546 1-671): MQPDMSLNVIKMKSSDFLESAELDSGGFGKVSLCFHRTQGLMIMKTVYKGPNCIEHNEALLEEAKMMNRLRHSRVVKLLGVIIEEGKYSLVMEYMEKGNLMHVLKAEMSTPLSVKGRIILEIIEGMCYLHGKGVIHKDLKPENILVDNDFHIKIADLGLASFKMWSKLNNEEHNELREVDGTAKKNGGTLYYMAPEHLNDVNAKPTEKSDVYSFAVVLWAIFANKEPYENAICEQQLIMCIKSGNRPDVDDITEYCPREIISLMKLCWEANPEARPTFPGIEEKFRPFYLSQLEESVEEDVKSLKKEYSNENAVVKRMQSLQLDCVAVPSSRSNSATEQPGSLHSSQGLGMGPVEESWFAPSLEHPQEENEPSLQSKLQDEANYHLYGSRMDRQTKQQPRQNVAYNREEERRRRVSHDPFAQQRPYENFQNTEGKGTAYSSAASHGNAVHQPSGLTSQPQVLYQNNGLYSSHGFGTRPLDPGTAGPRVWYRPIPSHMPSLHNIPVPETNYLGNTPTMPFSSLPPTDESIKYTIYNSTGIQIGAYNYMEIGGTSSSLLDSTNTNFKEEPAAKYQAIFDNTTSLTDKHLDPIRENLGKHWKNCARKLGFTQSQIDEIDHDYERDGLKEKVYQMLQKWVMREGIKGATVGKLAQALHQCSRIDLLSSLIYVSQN

hRIPK3 = hRIPK3 (Homo sapiens, UniProt Q9Y572); experiment: In vitro RIPK3 kinase activity assay; type: biochemical
TEL-TRKA fusion = TEL-TRKA fusion (Homo sapiens, UniProt P04629+P41212); experiment: Anti-proliferation in engineered Ba/F3 cells dependent on TEL-TRKA; type: cell-based; conditions: read-out: IC50 anti-proliferative effect, TEL-TRKA Ba/F3; 72 h
[1] = system: phosphorylation of RIPK1, RIPK3 and MLKL; experiment: Western blotting of necroptotic signaling in L929 cells; type: cell-based, mouse; conditions: TNFα (40 ng/mL) and SM164 (25 nmol/L), 15 h, titration
RIPK1 = type: cell-based, human
SARS-CoV-2 = type: cell-based; conditions: 5 μmol/L, 48 h, human lung organoids
PK study in mice = type: in vivo; conditions: male, ICR, mouse, plasma
PK study in rats = type: in vivo; conditions: SD, rat, plasma
[2] = system: TNFα-induced systemic inflammatory response syndrome; experiment: TNFα-induced SIRS mouse model; type: in vivo, C57BL/6J male mice; conditions: TNFα 10 μg iv
Ripk1K612R/K612R mice = type: in vivo, mouse; conditions: 10 or 20 mpk po QD, 40 days
RA symptoms = experiment: RA mouse model induced by collagen antibodies and LPS; type: in vivo, BALB/c male mice; conditions: 15 or 30 mpk po daily, 8 days
p-S166 RIPK1 = experiment: Pharmacodynamic study in SIRS mouse model, p-RIPK1 immunostaining; type: in vivo; conditions: 1 mpk, 8 h after TNFα (20 μg)
p-S345 MLKL = experiment: Pharmacodynamic study in SIRS mouse model, p-MLKL immunostaining; type: in vivo; conditions: 2 mpk, 8 h after TNFα (20 μg)

hRIPK3, sequence (Q9Y572 whole entry, the tested form may be a part): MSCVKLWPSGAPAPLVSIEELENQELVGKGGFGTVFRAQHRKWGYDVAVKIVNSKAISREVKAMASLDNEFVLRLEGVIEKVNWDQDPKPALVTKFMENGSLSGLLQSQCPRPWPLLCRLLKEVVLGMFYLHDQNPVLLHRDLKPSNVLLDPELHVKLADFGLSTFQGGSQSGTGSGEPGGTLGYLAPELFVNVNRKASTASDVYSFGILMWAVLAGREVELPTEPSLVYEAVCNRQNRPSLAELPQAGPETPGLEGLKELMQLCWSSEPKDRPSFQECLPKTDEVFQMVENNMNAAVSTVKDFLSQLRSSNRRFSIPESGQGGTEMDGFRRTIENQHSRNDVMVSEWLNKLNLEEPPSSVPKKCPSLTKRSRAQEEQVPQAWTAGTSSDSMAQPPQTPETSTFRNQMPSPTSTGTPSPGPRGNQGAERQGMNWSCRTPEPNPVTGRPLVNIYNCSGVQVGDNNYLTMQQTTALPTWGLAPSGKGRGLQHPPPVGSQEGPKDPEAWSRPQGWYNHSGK
TEL-TRKA fusion, sequence (P04629 510-781 limits assumed, one chain of several): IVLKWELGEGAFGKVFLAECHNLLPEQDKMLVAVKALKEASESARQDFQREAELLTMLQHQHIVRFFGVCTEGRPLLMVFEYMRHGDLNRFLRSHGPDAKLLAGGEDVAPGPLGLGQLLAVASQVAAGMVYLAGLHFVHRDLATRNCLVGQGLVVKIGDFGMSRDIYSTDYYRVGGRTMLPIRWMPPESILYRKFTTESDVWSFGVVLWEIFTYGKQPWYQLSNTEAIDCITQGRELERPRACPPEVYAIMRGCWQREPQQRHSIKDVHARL

C[C@@H](c1ccc(-n2cnc3c(N)ncnc32)cc1)N1CCc2nn(C)c(Cc3ccccc3)c2C1=O [compound 62, (S)-5-(1-(4-(6-Amino-9H-purin-9-yl)phenyl)ethyl)-3-benzyl-2-methyl-2,5,6,7-tetrahydro-4H-pyrazolo[4,3-c]pyridin-4-one]
EC50 (FADD−/− Jurkat; read-out: EC50 FADD−/− Jurkat T + S): 0.1 nM | EC50 (FADD−/− Jurkat; read-out: EC50 FADD−/− Jurkat TNFα): 0.02 nM | EC50 (L929; read-out: EC50 L929 T + S): 1.3 nM | EC50 (L929; read-out: EC50 L929 TNFα): 0.2 nM | IC50 (hRIPK1): 3.5 nM | IC50 (hRIPK3): 730 nM | fold less potent against hRIPK3 than hRIPK1 (hRIPK3; ratio of enzymatic IC50s): at least 200 fold | IC50 (TEL-TRKA fusion): 634 nM | phosphorylation cascade (Western blot), L929 [1]: almost completely blocked the phosphorylation cascade at 40 nmol/L | activation of RIPK1 in SARS-CoV-2 infected human lung organoids (RIPK1): completely abolished the activation of RIPK1 | antiviral effects (SARS-CoV-2 N protein levels) (SARS-CoV-2): very strong antiviral effects compared to reported RIPK1i | AUC(0-inf) (PK study in mice; iv, 0.5 mg/kg): 476 ng·h/mL | AUC(0-t) (PK study in mice; iv, 0.5 mg/kg): 471 ng·h/mL | MRT inf (PK study in mice; iv, 0.5 mg/kg): 1.49 h | Vd (PK study in mice; iv, 0.5 mg/kg): 0.94 L/kg | clearance (PK study in mice; iv, 0.5 mg/kg): 10 mL/min/kg | half-life (PK study in mice; iv, 0.5 mg/kg): 1.29 h | AUC(0-inf) (PK study in mice; po, 5 mg/kg): 6520 ng·h/mL | AUC(0-t) (PK study in mice; po, 5 mg/kg): 6500 ng·h/mL | Cmax (PK study in mice; po, 5 mg/kg): 1980 ng/mL | MRT inf (PK study in mice; po, 5 mg/kg): 2.81 h | Tmax (PK study in mice; po, 5 mg/kg): 0.5 h | bioavailability (PK study in mice; po, 5 mg/kg): 82.2% | half-life (PK study in mice; po, 5 mg/kg): 3.86 h | Tmax (PK study in rats; po, 5 mg/kg): 0.5 h | bioavailability (PK study in rats; po, 5 mg/kg): 34.1% | half-life (PK study in rats; po, 5 mg/kg): 4.19 h | AUC(0-inf) (PK study in rats; male, iv, 0.5 mg/kg): 397 ng·h/mL | AUC(0-t) (PK study in rats; male, iv, 0.5 mg/kg): 390 ng·h/mL | MRT inf (PK study in rats; male, iv, 0.5 mg/kg): 1.03 h | Vd (PK study in rats; male, iv, 0.5 mg/kg): 0.77 L/kg | clearance (PK study in rats; male, iv, 0.5 mg/kg): 13.3 mL/min/kg | half-life (PK study in rats; male, iv, 0.5 mg/kg): 0.91 h | AUC(0-inf) (PK study in rats; male, po, 5 mg/kg): 2250 ng·h/mL | AUC(0-t) (PK study in rats; male, po, 5 mg/kg): 2200 ng·h/mL | Cmax (PK study in rats; male, po, 5 mg/kg): 505 ng/mL | MRT inf (PK study in rats; male, po, 5 mg/kg): 6.82 h | symptoms (hypothermia) in SIRS mice ([2]; 1 mpk (po)): almost eliminated the symptoms | survival in SIRS mice ([2]; 1 mpk (po), n = 7): protected all mice from the fatality | acute hypothermia in SIRS mice ([2]; 2 mpk (po)): completely mitigated the acute hypothermia | adverse effects during long-term treatment (Ripk1K612R/K612R mice): no adverse effects had been observed | colorectal stricture, splenomegaly and thymus hyperplasia symptoms in IBD mice (Ripk1K612R/K612R mice): significantly alleviated | diarrhea and weight loss symptoms in IBD mice (Ripk1K612R/K612R mice; vs control group): significantly reduced diarrhea and weight loss symptoms | RA symptoms (paw edema, erythema, joint stiffness) (RA symptoms): effectively eliminate most RA symptoms | bodyweight in RA mice (RA symptoms): without affecting the bodyweight | TNFα-induced activation of RIPK1 in mouse organs (p-S166 RIPK1): almost eliminated TNFα-induced activation of RIPK1 in mouse organs | phosphorylation levels of MLKL in mouse organs (p-S345 MLKL): significantly suppressed
